Target: T1, C21orf58 (Homo sapiens, UniProt P58505)
T1 construct: human C21orf58 in pET-21a, expressed in E. coli Rosetta (DE3), Ni-NTA purified, lyophilized
Assay: 1H NMR of mixed ligand and purified protein
Format: binding
Conditions: deuterated water; mixed and incubated 30 min at room temperature; 600 MHz

T1 sequence (P58505 whole entry): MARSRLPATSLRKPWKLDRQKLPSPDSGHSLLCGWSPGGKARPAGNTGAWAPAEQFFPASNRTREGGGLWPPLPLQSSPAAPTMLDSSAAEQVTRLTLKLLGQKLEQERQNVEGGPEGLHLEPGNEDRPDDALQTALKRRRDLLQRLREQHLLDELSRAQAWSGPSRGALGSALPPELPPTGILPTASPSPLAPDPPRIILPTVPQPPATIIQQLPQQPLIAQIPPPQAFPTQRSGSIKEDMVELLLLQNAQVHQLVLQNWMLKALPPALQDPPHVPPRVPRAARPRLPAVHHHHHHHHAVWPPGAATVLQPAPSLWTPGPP

## C=C(C)CNc1ccc(C(C)C(=O)O)cc1 (stereo not shown) [alminoprofen]
  1H NMR of mixed ligand and purified protein: H Nuclear Magnetic Resonance Spectra suggested that alminoprofen could bind on the C21orf58 protein
